The record followed here is patent US20210228523A1, “MODULATORS OF SESTRIN-GATOR2 INTERACTION AND USES THEREOF” (Navitor Pharmaceuticals, Inc., priority 2017, published 2021).

In this assay the target is T1, GATOR2/Sestrin2 complexes (Homo sapiens, UniProt P58004).
T1 construct: endogenous in cells; host or cells: HEK293T cells stably expressing FLAG-WDR24 (lentiviral, pLJM60)
T1 sequence (P58004 1-480): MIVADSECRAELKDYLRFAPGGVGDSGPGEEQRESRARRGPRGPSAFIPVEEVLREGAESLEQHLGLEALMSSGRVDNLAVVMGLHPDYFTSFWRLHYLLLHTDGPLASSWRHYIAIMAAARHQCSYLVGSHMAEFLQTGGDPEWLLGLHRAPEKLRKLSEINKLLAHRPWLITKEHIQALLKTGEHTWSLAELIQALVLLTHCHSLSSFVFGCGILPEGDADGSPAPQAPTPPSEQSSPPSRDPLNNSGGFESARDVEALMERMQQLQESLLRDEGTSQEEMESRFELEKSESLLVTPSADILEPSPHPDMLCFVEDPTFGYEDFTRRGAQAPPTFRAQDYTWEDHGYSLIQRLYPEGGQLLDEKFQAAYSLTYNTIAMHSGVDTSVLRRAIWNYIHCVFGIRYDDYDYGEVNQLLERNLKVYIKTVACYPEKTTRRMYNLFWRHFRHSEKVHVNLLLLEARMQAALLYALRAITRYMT
Nature of the assay: In vitro PPI assay (Method 1; Western blot assay): Sestrin2 bound to GATOR2 after compound addition to immunoprecipitated FLAG-WDR24 complex. The settings on record: 25 μM, % activity relative to leucine (25 μM = 100%). In kind it is binding. The source says: This screening assay measured test compound activity in vitro on GATOR2/Sestrin2 complexes purified via immunoprecipitation of stably expressed FLAG-WDR24 from HEK293T cells. HEK293T cells (293 Ts) were engineered to stably express N-terminally tagged FLAG-WDR24 via transduction by lentivirus. Lentiviruses were produced by co-transfection of the lentiviral transfer vector pLJM60 with the […] into HEK-293T cells using the XTremeGene 9 transfection reagent (Roche Diagnostics). The media was changed 24 hours post-transfection to Dulbecco's Modified Eagle's media (DMEM) supplemented with 30% Inactivated Fetal Serum. The virus-containing supernatants were collected 48 and 72 hours after transfection and passed through a 0.45 μm filter to eliminate cells. Target cells in 6-well tissue culture plates were infected in media containing 8 μg/mL polybrene and spin infections were performed by centrifugation at 2,200 rpm for 1 hour. Twenty-four hours after infection, the virus was removed and the cells selected with the appropriate antibiotic. Cells were then grown in DMEM supplemented with 10% fetal bovine serum and antibiotics.
Seventy-two hours later, cells were placed in standard RPMI media formulated with no amino acids and supplemented with 5 mM Glucose (−AA RPMI, US Biological Life Sciences) for 1 hour then subsequently lysed in lysis buffer (40 mM HEPES, 1% Triton, 10 mM sodium β-glycerophosphate, 10 mM sodium pyrophosphate, 2.5 mM MgCl2 and protease inhibitors). To isolate the FLAG-WDR24/endogenous-Sestrin2 complex, crude lysate (equivalent to 2-4 mg of total protein) in a volume of 1 ml was subjected to immunoprecipitation with 30 μl of anti-flag resin (SIGMA) for 2 hours at 4° C., washed twice in cold lysis buffer plus 0.5M NaCl and resuspended in 1 ml of cold cytosolic buffer (40 mM HEPES pH 7.4, 140 mM KCl, 10 mM NaCl, 2.5 mM MgCl2, 0.1% TritonX-100). […] After the incubation period, samples were centrifuged to pellet the FLAG-WDR24/endogenous-Sestrin2 complex bound to the anti-flag resin, the supernatant was completely removed and resin was resuspended in SDS-PAGE sample buffer and boiled for 5 minutes. Samples were then processed by SDS-PAGE and western blots were performed with anti-FLAG (SIGMA) and anti-Sestrin2 (Cell Signaling Technology) antibodies as described in L. Chantranupong, et al., Cell Reports 9:1-8 (2014).
The resulting western blots were scanned and band intensities corresponding to Sestrin2 and FLAG-WDR24 were quantified using the LI-COR® imaging platform. To determine the amount of Sestrin2 bound to GATOR2 for each condition, the band intensity for Sestrin2 was normalized to the band intensity of FLAG-WDR24. […]
72 hours later, cells were placed in standard RPMI media formulated with no amino acids and supplemented with 5 mM Glucose (−AA RPMI, USBiological Life Sciences) for 1 hour then subsequently lysed in lysis buffer (40 mM HEPES, 1% Triton, 10 mM Sodium Beta-Glycerophosphate, 10 mM Sodium Pyrophosphate, 2.5 mM MgCl2 and protease inhibitors). The Flag-WDR24/endogenous-Sestrin2 complex was isolated as follows: crude lysate (equivalent to 2-4 mg of total protein) in a volume of 1 ml was subjected to immunoprecipitation (IP) with 30 μl of anti-flag resin (SIGMA) for 2 hours at 4° C., washed twice in cold lysis buffer plus 0.5M NaCl and resuspended in 1 ml of cold cytosolic buffer (40 mM HEPES pH 7.4, 140 mM KCl, 10 mM NaCl, 2.5 mM MgCl2, 0.1% TritonX-100). Compounds were then added to each sample at a given concentration of 25 μM and incubated with rotation at 4° C. for 30 minutes. After the incubation period, samples were centrifuged to pellet the Flag-WDR24/endogenous-Sestrin2 complex bound to the anti-flag resin, the supernatant was completely removed and resin was resuspended in sodium dodecyl sulfate-polyacrylamide gel electrophoresis (SDS-PAGE) sample buffer and boiled for 5 minutes. […]

Turning to `COCCC(N)C(=O)O` (stereo not drawn) [Compound I-39], the “Activity of Leucine: % Activity” value is “C (a % activity relative to leucine of between -40 and 40%)”.
Regarding `CC(=O)N[C@@H](CC(C)C)C(=O)O` [Compound I-36, (S)-2-acetamido-4-methylpentanoic Acid], the “Activity of Leucine: % Activity” value is given as “B (a % activity relative to leucine of ≤−40%)”.
To `CC(C)C[C@H](N)CC(=O)O` [Compound I-34] belongs “C (a % activity relative to leucine of between -40 and 40%)”; to `CC(C)C[C@H](N)C(=O)N1CCCC[C@H]1C` [Compound I-161], “C (a % activity relative to leucine of between -40 and 40%)”.
With `CC(C)CN[C@@H](CC(C)C)C(=O)O` [Compound I-14, (S)-2-(isobutylamino)-4-methylpentanoic Acid] the entry was “B (a % activity relative to leucine of ≤−40%)”; with `CN[C@@H](CC(C)(C)C)C(=O)O` [Compound I-50], “C (a % activity relative to leucine of between -40 and 40%)”; with `CC(C)C[C@@H](N)S(=O)(=O)O` [Compound I-156], “C (a % activity relative to leucine of between -40 and 40%)”.
To `CC(C)C[C@H](N)C(=O)N(CC(C)C)CC(C)C` [Compound I-155] belongs “C (a % activity relative to leucine of between -40 and 40%)”; to `CC(C)C[C@H](N)C(=O)N(C)CC(C)C` [Compound I-152], “C (a % activity relative to leucine of between -40 and 40%)”.
As for `N[C@@H](CCC(F)(F)F)C(=O)O` [Compound I-6, (S)-2-amino-5,5,5-trifluoropentanoic Acid], the “Activity of Leucine: % Activity” value was “C (a % activity relative to leucine of between -40 and 40%)”.
Regarding `CC(C)C[C@H](N)S(=O)(=O)O` [Compound I-157], the “Activity of Leucine: % Activity” value was “B to C”.
With `CC(C)C[C@H](NS(=O)(=O)C1CCCCC1)C(=O)O` [Compound I-17, (S)-2-(cyclohexanesulfonamido)-4-methylpentanoic Acid], the “Activity of Leucine: % Activity” value is “C (a % activity relative to leucine of between -40 and 40%)”.
To `COC(=O)/C=C/C(=O)N[C@@H](CC(C)C)C(=O)O` [Compound I-45, (S,E)-2-(4-methoxy-4-oxobut-2-enamido)-4-methylpentanoic Acid] belongs “B (a % activity relative to leucine of ≤−40%)”.
As to `CC(C)C[C@H](NS(C)(=O)=O)C(=O)O` [Compound I-19, (S)-4-methyl-2-(methylsulfonamido)pentanoic Acid], the “Activity of Leucine: % Activity” value is “C (a % activity relative to leucine of between -40 and 40%)”.
With `CC(C)C[C@H](NCc1ccccc1)C(=O)O` [Compound I-11, (S)-2-(benzylamino)-4-methylpentanoic Acid], the “Activity of Leucine: % Activity” value is “C (a % activity relative to leucine of between -40 and 40%)”.
As to `CC(C)(C)C[C@H](N)C(N)=O` [Compound I-48], the “Activity of Leucine: % Activity” value is “C (a % activity relative to leucine of between -40 and 40%)”.
Consider `CC(C)C[C@H](N)B1OC(C)(C)C(C)(C)O1` [Compound I-38], for which the “Activity of Leucine: % Activity” value is “C (a % activity relative to leucine of between -40 and 40%)”.
For the compound `CN(C)[C@@H](CC(C)(C)C)C(N)=O` [Compound I-158], the “Activity of Leucine: % Activity” value is “C (a % activity relative to leucine of between -40 and 40%)”.
Turning to `N[C@H](CCC(F)(F)F)C(=O)O` [Compound I-7, (R)-2-amino-5,5,5-trifluoropentanoic Acid], the “Activity of Leucine: % Activity” value is “B (a % activity relative to leucine of ≤−40%)”.
To `CC(C)C[C@H](N)C(=O)NC(C)C` [Compound I-166] belongs “C (a % activity relative to leucine of between -40 and 40%)”; to `CC(C)[C@H](O)[C@H](N)C(=O)O` [Compound I-27], “A (a % activity relative to leucine of ≥40%)”.
